Among the data in patent US6458770B1, “Parenteral formulations comprising carbamazepine or its derivatives” (Novartis AG, priority 1997, dated 2002) are solubility in water values, retold here.

This data set can be described thus: Solubility of the active agent in water. The settings on record: 25° C., pH of 5.8 to 6.0. It is filed as physicochemical. Here is the method: A wide range of container sizes may be employed. Container size may be conveniently categorised as Low-Volume, i.e. 100 ml or less and High-Volume, i.e. above 100 ml and typically 250 ml. […] parenteral formulations could of course be employed but this may require the use of an organic co-solvent or other solubilising aid which is less desirable than a totally water-based formulation.

`NC(=O)N1c2ccccc2CC(O)c2ccccc21` (stereo not shown) [COMPOUND A, 10-hydroxy-10,11-tetrahydrocarbamazepine] gave a solubility in water of 3.2 to 4.2 mg/mL.
